# Assay results taken from paper PMC8141582, “Synergistic Effect of Statins and Abiraterone Acetate on the Growth Inhibition of Neuroblastoma via Targeting Androgen Receptor” (Frontiers in Oncology, 2021).
# Read-outs that look alike come from different tables or passages of the source.
# What was measured:
# [1] = system: SH-SY5Y cells; experiment: MTT cell viability assay, SH-SY5Y; format: cell-based; conditions: Homo sapiens, NB cell line, 72 h
# Method: N2a, SH-SY5Y, SK-N-BE (2), 10A, HUVEC, HL7702 cells were plated in 96-well plates at 8,000 cells/well, respectively, in complete media in triplicate wells for each dose and cultured for 18 h. The neuroblastoma cell lines, N2a, SH-SY5Y, and SK-N-BE (2), and non-cancer cell lines, 10A, HUVEC, and HL7702, were treated with simvastatin and fluvastatin in a range of doses from 0 to 20 μM and with AA from 0 to 30 μM; N2a, SH-SY5Y SK-N-BE (2), were treated with rosuvastatin in a range of doses from 0 to 100 μM for 72 h. Statins dissolved in DMSO and AA dissolved in ethanol. After 72 h treatment, the medium was added 0.5 mg/ml MTT reagent and incubated at 37°C for 4 h. Subsequently, the supernatant was aspirated, and cells were lysed in 150 µl DMSO, then shaken 10 min at 37°C. The optical density (OD) was measured at 570 and 630 nm using a plate reader.
# [2] = system: A549 cells; set-up: method as in Supplement [5]; key: Positive: Simvastatin alone inhibited the progression of cancer; Negative: Simvastatin alone could not inhibit the progression of cancer; conditions: Lung Adenocarcinoma, 10.0 mg/kg/day, i.v; ref Supplement [5]; cited from earlier work
# [3] = system: A498 cells; set-up: method as in Supplement [14]; key: Positive: Simvastatin alone inhibited the progression of cancer; Negative: Simvastatin alone could not inhibit the progression of cancer; conditions: Renal Cancer, 5.0 mg/kg/day, oral; ref Supplement [14]; cited from earlier work
# [4] = system: CAPAN-2 cells; set-up: method as in Supplement [8]; key: Positive: Simvastatin alone inhibited the progression of cancer; Negative: Simvastatin alone could not inhibit the progression of cancer; conditions: Pancreatic Cancer, 0.5 mg/kg/day, oral; ref Supplement [8]; cited from earlier work
# [5] = system: GL-26 cells; set-up: method as in Supplement [2]; key: Positive: Simvastatin alone inhibited the progression of cancer; Negative: Simvastatin alone could not inhibit the progression of cancer; conditions: Human glioblastoma multiforme, 1.0 mg/kg/day or 10.0 mg/kg/day, oral; ref Supplement [2]; cited from earlier work
# [6] = system: SH-SY5Y xenografts; experiment: SH-SY5Y tumor xenograft study; format: in vivo, BALB/c nude mice; conditions: Sim 20 mg/kg, oral daily
# Description: Four weeks old BALB/c nude mice of both sexes were purchased from Vital River Laboratory Animal Technology Co., Ltd. (Beijing, China) and maintained under specific pathogen-free conditions. Male mice were castrated 5 days before cell inoculation. […] Then, all the mice were divided randomly into four groups: control group (Placebo, n = 7), simvastatin group (Sim, n = 6), abiraterone acetate group (AA, n = 6), and combination group (Com, n = 6) including three male mice in each group. […] AA 150 mg/kg/day; combined simvastatin 10 mg/kg/day with AA 75 mg/kg/day. Tumor was harvested after 10 days of dosing, then fixed half of a tumor in 4% buffered formaldehyde for IHC and the other half was stored −80°C for RT-PCR and Western Blots analysis.
# [7] = system: specimens of T-ALL patients; set-up: method as in Supplement [25]; key: Positive: Simvastatin alone inhibited the progression of cancer; Negative: Simvastatin alone could not inhibit the progression of cancer; conditions: Pediatric Acute Lymphoblastic Leukemia, 20.0 mg/kg/day, oral; ref Supplement [25]; cited from earlier work
# [8] = system: SW 480 cells; set-up: method as in Supplement [10]; key: Positive: Simvastatin alone inhibited the progression of cancer; Negative: Simvastatin alone could not inhibit the progression of cancer; conditions: Colorectal Cancer, 6.0 mg/kg/day, oral; ref Supplement [10]; cited from earlier work
# [9] = system: HL7702 cells; experiment: MTT cell viability assay, HL7702; format: cell-based; conditions: Homo sapiens, L02, normal cell line, 72 h
# Method: (§1) Statins dissolved in DMSO and AA dissolved in ethanol. After 72 h treatment, the medium was added 0.5 mg/ml MTT reagent and incubated at 37°C for 4 h. Subsequently, the supernatant was aspirated, and cells were lysed in 150 µl DMSO, then shaken 10 min at 37°C. The optical density (OD) was measured at 570 and 630 nm using a plate reader.
# [10] = system: TSC2-null cells from the primary tumors; set-up: method as in Supplement [3]; key: Positive: Simvastatin alone inhibited the progression of cancer; Negative: Simvastatin alone could not inhibit the progression of cancer; conditions: Pulmonary Lymphangioleiomyomatosis, 100.0 mg/kg/day, oral; ref Supplement [3]; cited from earlier work
# [11] = system: MDA-MB-231 cells; set-up: key: Positive: Simvastatin alone inhibited the progression of cancer; Negative: Simvastatin alone could not inhibit the progression of cancer; conditions: Breast Cancer, cited from earlier work
# [12] = system: K562 cells; set-up: key: Positive: Simvastatin alone inhibited the progression of cancer; Negative: Simvastatin alone could not inhibit the progression of cancer; conditions: Chronic Myelogenous Leukemia, i.p., cited from earlier work
# [13] = system: HUVEC cells; experiment: MTT cell viability assay, HUVEC; format: cell-based; conditions: Homo sapiens, normal cell line, 72 h
# Method: as §1
# [14] = system: U87MG; set-up: method as in Supplement [1]; key: Positive: Simvastatin alone inhibited the progression of cancer; Negative: Simvastatin alone could not inhibit the progression of cancer; conditions: Glioma, 2.5 mg/kg/day, s.c.; ref Supplement [1]; cited from earlier work
# [15] = system: SNU-5 cells; set-up: method as in Supplement [6]; key: Positive: Simvastatin alone inhibited the progression of cancer; Negative: Simvastatin alone could not inhibit the progression of cancer; conditions: Gastric Cancer, 2.1 mg/kg/day, i.p.; ref Supplement [6]; cited from earlier work
# [16] = system: LAPC-4 cells; set-up: method as in Supplement [16]; key: Positive: Simvastatin alone inhibited the progression of cancer; Negative: Simvastatin alone could not inhibit the progression of cancer; conditions: Prostate Cancer, 11.0 mg/kg/day, s.c.; ref Supplement [16]; cited from earlier work
compound,measurement,setting,value
CCC(C)(C)C(=O)O[C@H]1C[C@@H](C)C=C2C=C[C@H](C)[C@H](CC[C@@H]3C[C@@H](O)CC(=O)O3)[C@H]21 [Simvastatin],IC50,[1],9.69 µM
same,Results (simvastatin alone),[2],Positive
same,Results (simvastatin alone),[3],Positive
same,Results (simvastatin alone),[4],Positive
same,Results (simvastatin alone),[5],Negative
same,tumor growth,[6],tumor growth delay
same,Results (simvastatin alone),[7],Negative
same,Results (simvastatin alone),[8],Positive
same,IC50,[9],20.6 µM
same,Results (simvastatin alone),[10],Positive
same,Results (simvastatin alone),"[11]; 5.0 mg/kg/day, i.v., ref Supplement [23]",Positive
same,Results (simvastatin alone),"[11]; 5.0 mg/kg/day, route unknown, ref Supplement [21]",Positive
same,Results (simvastatin alone),"[11]; 10.0 mg/kg/day, oral, ref Supplement [20]",Positive
same,Results (simvastatin alone),"[11]; 200.0 mg/kg/day, oral, ref Supplement [22]",Positive
same,Results (simvastatin alone),"[12]; 1.3 mg/kg/day or 2.0 mg/kg/day, ref Supplement [26]",Positive
same,Results (simvastatin alone),"[12]; 7.1 mg/kg/day or 14.3 mg/kg/day, ref Supplement [27]",Positive
same,IC50,[13],14.6 µM
same,Results (simvastatin alone),[14],Positive
same,Results (simvastatin alone),[15],Positive
same,Results (simvastatin alone),[16],Negative
